Among the test systems are NCI/ADR-RES; SF-295; OVCAR-5; Hs-578T; SF-539; NCI-H460; NCI-H522; 786-0; K562; SNB-75; SW-620; MDA-MB-231; DU-145; RPMI-8226; UACC-62; PC-3; IGROV-1; UACC-257; HCC 2998; MOLT-4.
What all share (assay): NCI anticancer screen, dose series, 48 h

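Results reflect a 48-hour exposure of cells in 96-well plates to compound at five concentrations. Here, GI50 denotes the concentration required for 50% inhibition of growth.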 The source made the active and inactive calls. Cut-off read from the data, not from the text of the source: active = GI50 up to about 1.1 µM and inactive = higher.

For the compound `O=C(O)Cc1ccc(Oc2nc3ccccc3nc2C(=O)O)cc1`, the GI50 in the test on NCI/ADR-RES, in the test with SF-295, with OVCAR-5, with Hs-578T, in the test with SF-539 and with NCI-H460 was > 100 µM (inactive) throughout. Also, the GI50 is > 100 µM (inactive) in the test on NCI-H522; > 100 µM (inactive) in the test with 786-0; 0.0849 µM (active) in the test on K562; > 100 µM (inactive) with SNB-75; > 100 µM (inactive) in the test on SW-620; > 100 µM (inactive) in the test with MDA-MB-231. The GI50 in the test with DU-145, in the test on RPMI-8226, with UACC-62, with PC-3, with IGROV-1 and in the test on UACC-257 was > 100 µM (inactive) in each case. Besides, the GI50 in the test on HCC 2998 is > 100 µM (inactive).
For `CC1=C(C)SC(=C2Sc3c(n(C)c(=O)n(C)c3=O)S2)S1`, the GI50 is 55.3 µM (inactive) in the test on NCI/ADR-RES; 28.7 µM (inactive) with SF-295; > 100 µM (inactive) in the test with OVCAR-5; 61.4 µM (inactive) in the test on Hs-578T; 13.2 µM (inactive) in the test with SF-539; 30.5 µM (inactive) with NCI-H460. Besides, the GI50 was 57.3 µM (inactive) with NCI-H522; 17.4 µM (inactive) in the test on 786-0; 62.7 µM (inactive) in the test with K562; 20.7 µM (inactive) in the test on SNB-75; > 100 µM (inactive) in the test with SW-620; > 100 µM (inactive) in the test with MOLT-4. For the same compound, the GI50 is 22.7 µM (inactive) in the test on MDA-MB-231; > 100 µM (inactive) in the test with DU-145; > 100 µM (inactive) with RPMI-8226; 44.7 µM (inactive) in the test on UACC-62; > 100 µM (inactive) in the test with PC-3; 59.2 µM (inactive) in the test on IGROV-1. Further, the GI50 in the test with UACC-257 and in the test on HCC 2998 was > 100 µM (inactive) throughout.
As to `O=C(Nc1ccc(N2C(=O)CSC2c2ccccc2O)cc1)c1ccc(N2C(=O)CSC2c2ccccc2O)cc1` (configuration not stated), the GI50 is > 100 µM (inactive) in the test on NCI/ADR-RES; 34.4 µM (inactive) in the test on SF-295; 83.6 µM (inactive) in the test with OVCAR-5; 71.9 µM (inactive) in the test on Hs-578T; 69.7 µM (inactive) in the test with SF-539; 83.8 µM (inactive) in the test with NCI-H460. Further, the GI50 was 55.7 µM (inactive) in the test on NCI-H522; 43.7 µM (inactive) with 786-0; > 100 µM (inactive) in the test with K562; 27.7 µM (inactive) in the test with SNB-75; > 100 µM (inactive) with SW-620; > 100 µM (inactive) with MOLT-4. Besides, the GI50 with MDA-MB-231 is 44 µM (inactive); with DU-145, > 100 µM (inactive); with RPMI-8226 it was 57.9 µM (inactive); with UACC-62 it was 29.1 µM (inactive); in the test on PC-3 it was 43.3 µM (inactive); in the test with IGROV-1, > 100 µM (inactive). The GI50 with UACC-257 and in the test with HCC 2998 was > 100 µM (inactive) throughout.
As to `NC(=S)NS(=O)(=O)c1ccc(F)cc1`, the GI50 in the test with NCI/ADR-RES, in the test with SF-295, in the test with OVCAR-5, with Hs-578T, in the test with SF-539 and in the test on NCI-H460 was > 100 µM (inactive) each time. Further, the GI50 with NCI-H522, with 786-0, with K562, in the test on SNB-75, in the test with SW-620 and in the test on MOLT-4 was > 100 µM (inactive) in each case. Also, the GI50 with MDA-MB-231, with DU-145, in the test with RPMI-8226, in the test with UACC-62, in the test with PC-3 and in the test with IGROV-1 was > 100 µM (inactive) throughout. For the same compound, the GI50 in the test on UACC-257 and with HCC 2998 was > 100 µM (inactive) throughout.
For `Oc1ccc2ccccc2c1-c1c(Nc2ccccc2)ccc2ccccc12`, the GI50 in the test on NCI/ADR-RES is > 34.7 µM (inactive); with SF-295, 16.8 µM (inactive); in the test with OVCAR-5, 16.3 µM (inactive); with Hs-578T, 19.9 µM (inactive); with SF-539, 14 µM (inactive); with NCI-H460, 15.4 µM (inactive). Moreover, the GI50 in the test on NCI-H522 was 15.8 µM (inactive); with 786-0 it was 17.8 µM (inactive); in the test on K562, 13.7 µM (inactive); in the test on SNB-75, 16.1 µM (inactive); with SW-620, 11.4 µM (inactive); in the test with MOLT-4 it was 17.7 µM (inactive). In addition, the GI50 is 0.498 µM (active) in the test on MDA-MB-231; 17.3 µM (inactive) in the test with DU-145; 17.8 µM (inactive) with RPMI-8226; 14.9 µM (inactive) with UACC-62; 18.4 µM (inactive) in the test with PC-3; 5.73 µM (inactive) in the test on IGROV-1. Also, the GI50 was 18.9 µM (inactive) in the test with UACC-257 and 14 µM (inactive) in the test on HCC 2998.
On to `CC1CC[C@@]2(OC1)O[C@H]1[C@H](O)[C@H]3[C@@H]4CC[C@H]5C[C@@H](OC6OC(CO)C(OC7OC(CO)C(O)C(OC8OCC(O)C(O)C8O)C7OC7OC(CO)C(O)C(O)C7OC7OC(CO)C(O)C(O)C7O)C(O)C6O)[C@H](O)C[C@]5(C)[C@H]4CC[C@]3(C)[C@H]1[C@@H]2C` (some centres not stated), for which the GI50 in the test on NCI/ADR-RES was > 10 µM (inactive); with OVCAR-5, > 10 µM (inactive); with Hs-578T, 3.67 µM (inactive); in the test with SF-539, 9.46 µM (inactive); with NCI-H460, > 10 µM (inactive); in the test on NCI-H522, 2.78 µM (inactive). The GI50 in the test on 786-0 was 3.12 µM (inactive); in the test with K562, 1.77 µM (inactive); in the test with SNB-75 it was 3.1 µM (inactive); with SW-620 it was > 10 µM (inactive); in the test on MOLT-4, 0.144 µM (active); in the test with MDA-MB-231, 2.61 µM (inactive). Besides, the GI50 is > 10 µM (inactive) with DU-145; 2.15 µM (inactive) in the test with RPMI-8226; > 10 µM (inactive) in the test on UACC-62; 2.7 µM (inactive) in the test with PC-3; 3.7 µM (inactive) in the test on IGROV-1; > 10 µM (inactive) in the test on UACC-257. In the test with HCC 2998, the GI50 was > 10 µM (inactive).
For the compound `CC1(C)S[C@@H]2[C@H](N3C(=O)c4ccccc4C3=O)CN2[C@H]1NC(=O)N[C@@H]1N2C[C@@H](N3C(=O)c4ccccc4C3=O)[C@H]2SC1(C)C`, the GI50 with NCI/ADR-RES was > 100 µM (inactive); in the test on SF-295, 75.7 µM (inactive); with OVCAR-5 it was > 100 µM (inactive); with Hs-578T, > 100 µM (inactive); with SF-539, 55.1 µM (inactive); in the test on NCI-H460 it was > 100 µM (inactive). The GI50 is > 100 µM (inactive) with NCI-H522; 54.5 µM (inactive) in the test with 786-0; > 100 µM (inactive) in the test on K562; 58.2 µM (inactive) in the test with SNB-75; > 100 µM (inactive) with SW-620; > 100 µM (inactive) in the test on MOLT-4. Moreover, the GI50 with MDA-MB-231 is 52.7 µM (inactive); in the test with DU-145, > 100 µM (inactive); in the test with RPMI-8226 it was > 100 µM (inactive); in the test on UACC-62 it was > 100 µM (inactive); with PC-3 it was > 100 µM (inactive); in the test on IGROV-1, > 100 µM (inactive). Besides, the GI50 in the test on HCC 2998 is > 100 µM (inactive).

Values taken from ChEMBL document CHEMBL1201862, “PubChem BioAssay data set” (2004).
